Data from patent US20040147028A1, “Yeast treatment” (priority 2002, published 2004).
Like-named read-outs stand apart in the source and are kept apart here.

What was measured:
yeast protoplasts [1] = test system: yeast protoplasts
Protocol: To ensure the competent nature of the formed protoplast to undertake endocytosis, the yeast cells were grown on a modified YEPD media in which the 2% (w/v) dextrose was replaced by 4% (w/v) sucrose as the carbon source to facilitate a mechanism for the absorption and transport of the sucrose C14 by the yeast cells. Protoplasts were formed as described above and isolated again utilising a sorbitol based density gradient. Silicon oil isolation of protoplasts is a convenient method for separating radio labelled cells from a sugar gradient solution. […] Seven micro tubes (400 ul) were prepared for pelletising the protoplasts with each containing 10 ul of Fluorinert FC 77 as a capture solution and 100 ul of Silicon Oil AR 200 (Density of 1.05 g/1) as the media to be used for the separation of sucrose C14 protoplasts. In the experiment 40 ul of a 1M sucrose (made in a 50 ml volumetric flask) was used to which was added 2 ul of the sucrose C14 stock. Then 1.2 ml of the protoplast suspension was placed into a 1.5 ml eppendoff tube and 12 ul of the 1M sucrose C14 solution was placed in the cap. The incubation time started when the cap was sealed onto the eppendoff tube. Next, 100 ul aliquots of the protoplasts were taken at 10 minute intervals and placed sequentially into a series of the prepared 400 ul tubes containing the silicon oil gradients and spun at 7000 rpm for 10 second. The tubes were removed at each time interval and cut through the upper silicon oil fraction to capture the formed protoplast pellet and resuspended in 100 ul of Milli Q water in a scintillation tube containing 3 ml of scintillation fluid. As a standard, 100 ul volumes of the 1M sucrose containing the sucrose C14 were taken for counting but not spun through the silicon oil as were the protoplasts without the isotope but these spun through the silicon oil and counted to avoid quenching correction of the protoplast extract.
A graph of time vs. counts, recorded as nmoles of absorbed sucrose was then prepared to confirm the uptake of our sucrose isotope by the competent protoplasts.
Standards were prepared and measured for background scintillation without the added isotope and 100 ul of a 1M sucrose standard continuing the isotope was measured to obtain counts for a 1 umole solution of sucrose.

yeast protoplasts [2] = experiment: Endocytosis study: yeast protoplasts incubated with dye-bound liposomes, confocal and transmission electron microscopy; assay type: cell-based, Saccharomyces cerevisiae (YNN 281); conditions: dye incubated alone with the formed protoplasts, unencapsulated
Protocol: An 0.8 ml aliquot of protoplast suspension was dispensed through a large orifice pipette tip (ensuring minimal disturbance of the fragile protoplast) into a sterilised eppendoff tube to which was added 0.8 ml of the liposome suspension obtained from the gel filtration. Both solutions were of equivalent densities to ensure the stability of the protoplast and gently mixed prior to incubation. The tubes were individually wrapped in foil and embedded on their side in a sheet of Styrofoam which was also wrapped in foil to ensure the tubes would remain in place and then immersed into a water bath a 37° C. for the 90 minute incubation.
A 20 ul sample of the incubated suspension was applied to a microscope slide with the edges of the cover slip sealed with an acrylic resin to inhibit drying out of the sample. The slides once made were stored in the dark to reduce the risk of a loss in fluorescence of the FITC conjugate and viewed immediately under phase contrast and fluorescence using the confocal microscope.
The technique used for preparing sections of block-mounted cells for image analysis required 0.5 ml of the protoplast-liposome suspension to be fixed with 50 ul of 1.25% (v/v) glutaraldehyde and 1.0% (w/v) paraformaldehyde in a 0.2M cacodylate buffer at pH 7.2 for 1 hour. The fixed suspension was then mixed with a similar volume of 5.0% agarose and placed at 4° C. for 20 minutes to set. […]

| Compound | I-Sucrose 14 C uptake (yeast protoplasts [1]; time 1 min) | I-Sucrose 14 C uptake (yeast protoplasts [1]; time 10 min) | I-Sucrose 14 C uptake (yeast protoplasts [1]; time 20 min) | I-Sucrose 14 C uptake (yeast protoplasts [1]; time 30 min) | I-Sucrose 14 C uptake (yeast protoplasts [1]; time 40 min) | I-Sucrose 14 C uptake (yeast protoplasts [1]; time 50 min) | I-Sucrose 14 C uptake (yeast protoplasts [1]; time 60 min) | passive migration across the plasma membrane of protoplasts (false positive) (yeast protoplasts [2]) |
| --- | --- | --- | --- | --- | --- | --- | --- | --- |
| O[14CH2]C1OC(O[C@@]2([14CH2]O)OC([14CH2]O)C(O)C2O)C(O)C(O)C1O (stereo partly drawn) [I-Sucrose 14 C, I-sucrose-ul-14C] | 1.87 nmol | 6.62 nmol | 13.4 nmol | 17.9 nmol | 26.6 nmol | 35.9 nmol | 56.9 nmol |  |
| O=C(O)CN(CC(=O)O)Cc1cc2c(cc1O)Oc1cc(O)c(CN(CC(=O)O)CC(=O)O)cc1C21OC(=O)c2ccccc21 [calcein] |  |  |  |  |  |  |  | some passive migration of this molecule across the plasma membrane |
| fluorescein isothiocyanate dextran [formula 13] |  |  |  |  |  |  |  | eliminated this situation |
